The values below come from US5314896A, “1,3-substituted cycloalkenes and cycloalkanes as central nervous system agents” (priority 1992, dated 1994).

Each structure is given as a SMILES string. Like-named read-outs stand apart in the source and are kept apart here.

Test [1] has as its system Locomotor Activity in Mice. Kind of test: Inhibition of locomotor activity in mice. The conditions noted are these: for ED50: Mus musculus. The test is classed as in vivo. How it is done: (§1) The compounds of Formula I are valuable dopaminergic agents. […] Thus, the compounds of Formula I were tested for their ability to inhibit locomotor activity in mice and rats, a measure of antipsychotic activity, according to the assay described by J. R. McLean, et al, Pharmacology, Biochemistry and Behavior, Vol. 8, pages 97-99 (1978); for their ability to bind to dopamine receptors as measured by their inhibition of [^3 H]spiroperidol binding in a receptor assay described by D. Grigoriadis and P. Seeman, Journal of Neurochemistry, Vol. 44, pages 1925-1935 (1985); and for their ability to effect dopamine synthesis in rats according to the protocol described by J. R. Walters and R. H. Roth, Naunyn-Schmiedebero's Archives of Pharmacology, Vol. 296, pages 5-14 (1976). The above test methods are incorporated herein by reference. The data in the table show the dopaminergic activity of representative compounds of Formula I.

Test [2] relates to dopamine receptors. Kind of test: Comparison of 1,3 versus 1,4 series activity (binding and locomotor activity), results in words. The conditions noted are these: Table 2. The protocol:
(§2) Thus, the compounds of Formula I were tested for their ability to inhibit locomotor activity in mice and rats, a measure of antipsychotic activity, according to the assay described by J. R. McLean, et al, Pharmacology, Biochemistry and Behavior, Vol. 8, pages 97-99 (1978); for their ability to bind to dopamine receptors as measured by their inhibition of [^3 H]spiroperidol binding in a receptor assay described by D. Grigoriadis and P. Seeman, Journal of Neurochemistry, Vol. 44, pages 1925-1935 (1985); and for their ability to effect dopamine synthesis in rats according to the protocol described by J. R. Walters and R. H. Roth, Naunyn-Schmiedebero's Archives of Pharmacology, Vol. 296, pages 5-14 (1976). The above test methods are incorporated herein by reference.
(§3) The most important test is the locomotor activity orally in the rat as this corresponds most closely to human oral administration of an antipsychotic compound.

Test [3] concerns the target dopamine receptors. Kind of test: Inhibition of [^3 H] spiroperidol binding. How it is done:
as §1

A further test has as its system Brain Dopamine Synthesis. The test is described as follows: % effects on brain dopamine synthesis in rats. Particulars: for change in vivo at 10 mg/kg: Rattus norvegicus. It counts as in vivo. How it is done: as §1
Test [4] concerns Locomotor Activity in Rats. Kind of test: Inhibition of locomotor activity in rats (oral). It counts as in vivo. The protocol:
as §2, §3

The mark [5] stands for this setting: mice, IP (Table 2), read-out: Inhibition of Locomotor Activity in Mice ED50.
Where [6] appears, read: ip, read-out: % Effects on Brain Dopamine Synthesis in Rats, rats, 10 mg/kg, IP (Table 1).
Where [7] appears, read: ip, read-out: Inhibition of Locomotor Activity in Mice ED50, mice, IP (Table 1).
The mark [8] stands for this setting: rats, 10 mg/kg, IP (Table 1), read-out: % Effects on Brain Dopamine Synthesis in Rats.
Where [9] appears, read: mice, IP (Table 1), read-out: Inhibition of Locomotor Activity in Mice ED50.

With `C1=C(c2ccccc2)CC(N2CCN(c3ccccn3)CC2)CC1` (racemic) [Compound J, (±)-1-(3-phenyl-3-cyclohexen-1-yl)-4-(2-pyridinyl)piperazine, reference compound], the ED50 in test [1] (setting [5]) was found to be 28.2 mg/kg. The “binding and locomotor activity” value with dopamine receptors [2] was “essentially inactive”. In addition, the IC50 on dopamine receptors [3] (Table 2) came to 9850 nM.
For `C1=C(c2ccccc2)CCN(CC2CCC=C(c3ccccc3)C2)C1` (racemic) [Example 1, (±)-1,2,3,6-Tetrahydro-4-phenyl-1-[(3-phenyl-3-cyclohexen-1-yl)methyl]pyridine], the change in vivo at 10 mg/kg in the test with Brain Dopamine Synthesis (setting [6]) is -86%. Further, the ED50 is 1.6 mg/kg in test [1] (setting [7]) and 1.6 mg/kg in test [1] (ip, read-out: Inhibition of Locomotor Activity in Mice ED50, mice, IP (Table 2)). Besides, the “binding and locomotor activity” value in the test with dopamine receptors [2] was “surprisingly much more active in its binding and locomotor activity”. The IC50 at dopamine receptors [3] (Table 1) and at dopamine receptors [3] (Table 2) was 72 nM each time. Moreover, in test [4] (Table 2 compounds), the “locomotor activity orally in the rat” value is listed as “clearly the most potent”. Also, in test [4] (versus Compound C), the “times more active than the 1,4 Compound C, locomotor activity orally in the rat” value came to 4.8 times.
For `C1=C(c2ccccc2)CC(CN2CCN(c3ccccn3)CC2)CC1` (racemic) [Example 4, (±)-1-[(3-phenyl-3-cyclohexen-1-yl)methyl]-4-(2-pyridinyl)piperazine], the change in vivo at 10 mg/kg in the test on Brain Dopamine Synthesis (setting [8]) is -61%. Further, the ED50 in test [1] (setting [9]) is 0.85 mg/kg. Also, the “binding and locomotor activity” value with dopamine receptors [2] is recorded as “very potent”. The IC50 at dopamine receptors [3] (Table 1) and on dopamine receptors [3] (Table 2) was 141 nM in each case.
Consider `C1=C(c2ccccc2)CCC(N2CCN(c3ccccn3)CC2)C1` (racemic) [F, (±)-1-(4-phenyl-3-cyclohexen-1-yl)-4-(2-pyridinyl)piperazine, reference compound], for which the ED50 in test [1] (setting [5]) stood at 1.01 mg/kg. Further, the “binding and locomotor activity” value in the test on dopamine receptors [2] is recorded as “much more active than Compound G”. On dopamine receptors [3] (Table 2), the IC50 is 599 nM.
As for `C1=C(c2ccccc2)CCC(CCN2CCN(c3ccccn3)CC2)C1` (racemic) [H, (±)-1-[(4-phenyl-3-cyclohexen-1-yl)ethyl]-4-(2-pyridinyl)piperazine, reference compound], the ED50 in test [1] (setting [5]) turned out to be 1.1 mg/kg. For the same compound, the “binding and locomotor activity” value with dopamine receptors [2] is given as “much more active than Compound G”. This compound gave an IC50 on dopamine receptors [3] (Table 2) of 409 nM.
On to `C1=C(c2ccccc2)CCN(CC2CCC=C(c3ccccc3)C2)C1` (single isomer, unassigned; (+)) [Example 6, (+)-1,2,3,6-Tetrahydro-4-phenyl-1-[(3-phenyl-3-cyclohexen-1-yl)methyl]pyridine], for which the “% Effects on Brain Dopamine Synthesis in Rats” value in the test on Brain Dopamine Synthesis (rats, 10 mg/kg, IP (Table 1)) is given as -50%. In addition, the “Inhibition of Locomotor Activity in Mice ED50” value in test [1] (mice, IP (Table 1)) is 1.0 mg/kg. The compound further showed an IC50 at dopamine receptors [3] (Table 1) of 227 nM.
For `C1=C(c2ccccc2)CCN(CC2CCC=C(c3ccccc3)C2)C1` (single isomer, unassigned; (-)) [Example 6a, (-)-1,2,3,6-Tetrahydro-4-phenyl-1-[(3-phenyl-3-cyclohexen-1-yl)methyl]pyridine] the same measures were -34%, 5.6 mg/kg and 420 nM.
With `Fc1ccc(C2=CCC[C@@H](CN3CC=C(c4ccccc4)CC3)C2)cc1` [Example 8, (R)-1-[[3-(4-fluorophenyl)-3-cyclohexen-1-yl]methyl]-1,2,3,6-tetrahydro-4-phenylpyridine], in the test on Brain Dopamine Synthesis (setting [6]), the change in vivo at 10 mg/kg is -74%. Besides, the ED50 in test [1] (setting [7]) was 4 mg/kg. At dopamine receptors [3] (Table 1), this compound gave an IC50 of 76 nM.
For `Cc1ccc(C2=CCC[C@@H](CN3CC=C(c4ccccc4)CC3)C2)cc1` [Example 9, (R)-1,2,3,6-tetrahydro-1-[[3-(4-methylphenyl)-3-cyclohexen-1-yl]methyl]-4-phenylpyridine] the same measures were -42%, 0.8 mg/kg and 184 nM.
For `C1=C(c2ccccc2)CCN(C[C@@H]2CCC=C(c3cccs3)C2)C1.Cl` [Example 10, (R)-1,2,3,6-tetrahydro-4-phenyl-1-[[3-(2-thienyl)-3-cyclohexen-1-yl]methyl]pyridine monohydrochloride] the same measures were -54%, 1.6 mg/kg and 79 nM.
For `C1=C(c2ccccc2)CCN(C[C@H]2C=C(c3cccs3)CCC2)C1.Cl` [Example 10a, (R)-1,2,3,6-tetrahydro-4-phenyl-1-[[3-(2-thienyl)-2-cyclohexen-1-yl]methyl]pyridine monohydrochloride] the same measures were -58%, 1.5 mg/kg and 110 nM.
As to `COc1ccc(C2=CCC[C@@H](CN3CC=C(c4ccccc4)CC3)C2)cc1.Cl` [Example 11, (R)-1,2,3,6-tetrahydro-1-[[3-(4-methoxyphenyl)-3-cyclohexen-1-yl]methyl]-4-phenylpyridine monohydrochloride], the change in vivo at 10 mg/kg with Brain Dopamine Synthesis (setting [6]) is -47%. Also, the ED50 in test [1] (setting [7]) was found to be 0.37 mg/kg. This compound had an IC50 at dopamine receptors [3] (Table 1) of 100 nM.
For `C1=C(c2ccccc2)CCN(C[C@@H]2CCC=C(c3cccnc3)C2)C1.Cl` [Example 12, (R)-3-[5-[(3,6-dihydro-4-phenyl-1(2H)-pyridinyl)methyl]-1-cyclohexen-1-yl]pyridine monohydrochloride] the same measures were -85%, 0.01 mg/kg and 82 nM.
For `C1=C(c2cccnc2)CCC[C@H]1CN1CC=C(c2ccccc2)CC1.Cl.Cl` [Example 12a, (R)-3-[3-[(3,6-dihydro-4-phenyl-1(2H)-pyridinyl)methyl]-1-cyclohexen-1-yl]pyridine dihydrochloride] the same measures were -97%, 0.07 mg/kg and 87 nM.
In the same order, the values of `CN(C)c1ccc(C2=CCC[C@@H](CN3CC=C(c4ccccc4)CC3)C2)cc1` [Example 16, (R)-4-[5-[(3,6-dihydro-4-phenyl-1(2H)-pyridinyl)methyl]-1-cyclohexen-1-yl]-N,N-dimethylbenzeneamine] are -76%, 0.2 mg/kg and 53 nM.
As to `C1=C(c2ccccc2)CCN(C[C@@H]2CCC=C(c3cnc4ccccc4c3)C2)C1` [Example 17, (R)-3-[5-[(3,6-dihydro-4-phenyl-1(2H)-pyridinyl)methyl]-1-cyclohexen-1-yl]quinoline], the change in vivo at 10 mg/kg in the test on Brain Dopamine Synthesis (setting [6]) was -21%. In addition, the ED50 in test [1] (setting [7]) was found to be 0.23 mg/kg. The IC50 at dopamine receptors [3] (Table 1) worked out at 76 nM.
Take `O=C(N[C@H]1CCC[C@@H](CN2CC=C(c3ccccc3)CC2)C1)c1ccccc1` [Example 19, (1S-cis)-N-[3-[(3,6-dihydro-4-phenyl-1(2H)-pyridinyl)methyl]cyclohexyl]benzamide]: the change in vivo at 10 mg/kg in the test on Brain Dopamine Synthesis (setting [6]) was -95%. In addition, the median effective dose (ED50) in test [1] (setting [7]) was 0.15 mg/kg. In addition, at dopamine receptors [3] (Table 1), the IC50 came out at 34 nM.
For `C1=C(c2ccccc2)CCN(C[C@@H]2CCC[C@H](c3ccccc3)C2)C1.Cl` [Example 20, (1R-cis) 1,2,3,6-tetrahydro-4-phenyl-1-[(3-phenylcyclohexyl)methyl]pyridine monohydrochloride] the same measures were -100%, 0.7 mg/kg and 71 nM.
For `C1=C(c2ccccc2)C[C@H](CN2CCN(c3ccccn3)CC2)CC1` [Example 21, (R)-1-[(3-Phenyl-3-cyclohexen-1-yl)methyl]-4-(2-pyridinyl)piperazine], the change in vivo at 10 mg/kg in the test with Brain Dopamine Synthesis (setting [8]) is -27%. For the same compound, the ED50 in test [1] (setting [9]) is 9.9 mg/kg. The compound further showed an IC50 on dopamine receptors [3] (Table 1) of 76 nM.

Usually ED50 stands for the midpoint of the dose-response relation. Usually IC50 stands for the midpoint of a concentration-inhibition curve. A lower IC50 goes with greater potency in that assay.
